According to US20090088412A1, “COMPOSITION FOR TREATING CANCER CELLS AND PREPARATION METHOD THEREOF” (KAOHSIUNG MEDICAL UNIVERSITY, priority 2007, published 2009):
Values after ≈ are worked out from the molar mass of the structure shown.

How the values were obtained:
Type in all cases: cell-based, human
Hep G2 = test: MTT cytotoxicity test, Hep G2; details: liver cancer cell line, 72 hours
Description: (§1) The bioactivities of the 25 new withanolide compounds of the present invention are further studied. The bioactivities are measured by examining cytotoxicity tests with 5 human cancer cell lines, including MCF-7 and MDA-MB-231 (which are the breast cancer cell lines), Hep G2 and Hep 3B (which are the liver cancer cell line), and A549 (which is lung cancer cell line). In addition, a normal human lung cell line (MRC-5) is served as the control group. All human cancer cell lines come from the American Type Culture Collection. The respective cell lines are cultured in RPMI-1640 medium with 10% (v/v) fetal calf serum, 100 U/ml penicillin and 100 µg/ml streptomycin, and incubated at 37° C. in 5% CO2 atmosphere.
(§2) In the present invention, the cytotoxicity tests are performed with MTT (3-(4,5-dimethyl-thiazol-2-yl)-2,5-diphenyl tetrazolium bromide) method. The five cancer cell lines and the normal cell line (MRC-5) are firstly incubated in a 96-well culture dish with concentrations of 5,000˜10,000 cells/well. In Day 2, the respective incubated cells are added with the withanolide compounds of the present invention and Doxorubicin and are incubated for additional 72 hours. Afterwards, the incubated cells are examined with the MTT method including steps of dissolving the incubated cells in DMSO, and determining the absorbance of each cell line to each compound by a microplate reader in 550 nm to evaluate the cytotoxicity of each compound to each cell line. […] The IC50 represents the concentration of the compound that is required for 50% inhibition of the cell growth, and Doxorubicin serves as the positive control group.

Hep 3B = test: MTT cytotoxicity test, Hep 3B; details: liver cancer cell line, 72 hours
Description: as §1, §2

MCF-7 = test: MTT cytotoxicity test, MCF-7; details: breast cancer cell line, 72 hours
Description: as §1, §2

A-549 = test: MTT cytotoxicity test, A-549; details: lung cancer cell line, 72 hours
Description: as §1, §2

MDA-MB-231 = test: MTT cytotoxicity test, MDA-MB-231; details: breast cancer cell line, 72 hours
Description: as §1, §2

## COC1CC(=O)[C@]2(C)[C@H]3CC[C@@]4(C)[C@@H](CC[C@]4(O)[C@H](C)[C@H]4CC(C)=C(C)C(=O)O4)[C@@H]3C[C@H]3O[C@]32[C@H]1O (some centres unmarked) [Compound 15, Tubocapsanolide G]
Hep G2
  IC50 Hep G2: 17.55 µg/mL (≈ 34.9 µM)
Hep 3B
  IC50 Hep 3B: >20 µg/mL
MCF-7
  IC50 MCF-7: >20 µg/mL
A-549
  IC50 A-549: >20 µg/mL
MDA-MB-231
  IC50 MDA-MB-231: >20 µg/mL

## CC1=C(C)C(=O)O[C@@H]([C@@H](C)[C@@]2(C)C3=C(C[C@H]2O)[C@@H]2C[C@H](O)[C@]4(O)[C@@H](O)C=CC(=O)[C@]4(C)[C@H]2CC3)C1 [Compound 6, Tubocapsenolide F]
Hep G2
  IC50 Hep G2: >20 µg/mL
Hep 3B
  IC50 Hep 3B: 15.07 µg/mL (≈ 31 µM)
MCF-7
  IC50 MCF-7: 14.71 µg/mL (≈ 30.2 µM)
A-549
  IC50 A-549: 6.04 µg/mL (≈ 12.4 µM)
MDA-MB-231
  IC50 MDA-MB-231: 8.41 µg/mL (≈ 17.3 µM)

## CC1=C(C)C(=O)O[C@@H]([C@@H](C)[C@@]2(C)C3=C(C[C@H]2O)[C@@H]2C[C@H]4O[C@]45[C@@H](O)C(O)CC(=O)[C@]5(C)[C@H]2CC3)C1 (some centres unmarked) [Compound 3, Tubocapsenolide C]
Hep G2
  IC50 Hep G2: 15.93 µg/mL (≈ 32.7 µM)
Hep 3B
  IC50 Hep 3B: >20 µg/mL
MCF-7
  IC50 MCF-7: >20 µg/mL
A-549
  IC50 A-549: 7.06 µg/mL (≈ 14.5 µM)
MDA-MB-231
  IC50 MDA-MB-231: >20 µg/mL

## CC1=C(C)C(=O)O[C@@H]([C@@H](C)[C@@]2(O)CC[C@H]3[C@@H]4C[C@H](O)[C@]5(O)[C@@H](O)C=CC(=O)[C@]5(C)[C@H]4CC[C@@]32C)C1 [Compound 13, Tubocapsanolide D]
Hep G2
  IC50 Hep G2: >20 µg/mL
Hep 3B
  IC50 Hep 3B: 7.19 µg/mL (≈ 14.7 µM)
MCF-7
  IC50 MCF-7: >20 µg/mL
A-549
  IC50 A-549: 8.01 µg/mL (≈ 16.4 µM)
MDA-MB-231
  IC50 MDA-MB-231: 13.49 µg/mL (≈ 27.6 µM)

## COC1CC(=O)[C@]2(C)[C@H]3CC[C@]4(C)[C@@H]([C@@](C)(O)[C@H]5CC(C)=C(C)C(=O)O5)CC[C@H]4[C@@H]3C[C@H]3O[C@]32[C@H]1O (some centres unmarked) [Compound 16, iso-Tubocapsanolide G]
Hep G2
  IC50 Hep G2: 5.99 µg/mL (≈ 11.9 µM)
Hep 3B
  IC50 Hep 3B: 7.63 µg/mL (≈ 15.2 µM)
MCF-7
  IC50 MCF-7: >20 µg/mL
A-549
  IC50 A-549: 4.73 µg/mL (≈ 9.41 µM)
MDA-MB-231
  IC50 MDA-MB-231: 8.18 µg/mL (≈ 16.3 µM)

## C[C@@]12CC([C@@]3(O)[C@H](O)C[C@H]4[C@@H]5C[C@H]6O[C@]67[C@@H](O)C=CC(=O)[C@]7(C)[C@H]5CC[C@@]43C)[C@@H](C1)OC(=O)[C@]2(C)O (some centres unmarked) [Compound 21, Anomanolide C]
Hep G2
  IC50 Hep G2: 4.41 µg/mL (≈ 8.77 µM)
Hep 3B
  IC50 Hep 3B: 1.85 µg/mL (≈ 3.68 µM)
MCF-7
  IC50 MCF-7: 8.01 µg/mL (≈ 15.9 µM)
A-549
  IC50 A-549: 2.80 µg/mL (≈ 5.57 µM)
MDA-MB-231
  IC50 MDA-MB-231: 1.58 µg/mL (≈ 3.14 µM)

## C[C@@]12CC([C@@]3(O)[C@H](O)C[C@H]4[C@@H]5C[C@H](O)[C@]6(O)CC=CC(=O)[C@]6(C)[C@H]5CC[C@@]43C)[C@@H](C1)OC(=O)[C@]2(C)O (some centres unmarked) [Compound 23, Anomanolide E]
Hep G2
  IC50 Hep G2: >20 µg/mL
Hep 3B
  IC50 Hep 3B: >20 µg/mL
MCF-7
  IC50 MCF-7: >20 µg/mL
A-549
  IC50 A-549: >20 µg/mL
MDA-MB-231
  IC50 MDA-MB-231: >20 µg/mL

## C[C@@]12CC([C@@]3(O)[C@H](O)C[C@H]4[C@@H]5CC[C@]6(O)[C@@H](O)C=CC(=O)[C@]6(C)[C@H]5CC[C@@]43C)[C@@H](C1)OC(=O)[C@]2(C)O (some centres unmarked) [Compound 24, Anomanolide F]
Hep G2
  IC50 Hep G2: >20 µg/mL
Hep 3B
  IC50 Hep 3B: >20 µg/mL
MCF-7
  IC50 MCF-7: >20 µg/mL
A-549
  IC50 A-549: >20 µg/mL
MDA-MB-231
  IC50 MDA-MB-231: >20 µg/mL

## CCCCOC1CC(=O)[C@]2(C)[C@H]3CCC4=C(C[C@@H](O)[C@@]4(C)[C@H](C)[C@H]4CC(C)=C(C)C(=O)O4)[C@@H]3C[C@H]3O[C@]32[C@H]1O (some centres unmarked) [Compound 5, Tubocapsenolide E]
Hep G2
  IC50 Hep G2: 12.31 µg/mL (≈ 22.7 µM)
Hep 3B
  IC50 Hep 3B: 13.20 µg/mL (≈ 24.3 µM)
MCF-7
  IC50 MCF-7: >20 µg/mL
A-549
  IC50 A-549: 15.94 µg/mL (≈ 29.4 µM)
MDA-MB-231
  IC50 MDA-MB-231: 17.50 µg/mL (≈ 32.2 µM)

## C[C@]1(O)C[C@H]2OC(=O)[C@]1(C)C[C@H]2[C@@]1(O)[C@H](O)C[C@H]2[C@@H]3C[C@H](Cl)[C@]4(O)[C@@H](O)C=CC(=O)[C@]4(C)[C@H]3CC[C@@]21C [Compound 25, Tubonolide A]
Hep G2
  IC50 Hep G2: 5.09 µg/mL (≈ 9.44 µM)
Hep 3B
  IC50 Hep 3B: 6.54 µg/mL (≈ 12.1 µM)
MCF-7
  IC50 MCF-7: 12.03 µg/mL (≈ 22.3 µM)
A-549
  IC50 A-549: 5.91 µg/mL (≈ 11 µM)
MDA-MB-231
  IC50 MDA-MB-231: >20 µg/mL
